# Read-outs that look alike come from different tables or passages of the source.
# Experiments:
# [1] = tested on: PrP^Sc in nondividing ScN2a-c13 cells; format: cell-based, mouse
# [2] = tested on: PrP^Sc in dividing ScN2a-cl3 cells; format: cell-based, mouse; set-up: Dividing ELISA pEC50 (μM) 1st Expt. / Dividing ELISA pEC50 (μM) 2nd Expt. / Dividing ELISA pEC50 (μM) 3rd Expt. / Dividing ELISA pEC50 (μM) Mean: unit not given here
# [3] = Fraction unbound in cell-culture media; format: in vitro ADME; settings: 1 μM; mean ± SD, n = 3
# [4] = tested on: prion-infected mice; settings: literature reports; cited from earlier work
# [5] = Binding in mouse plasma; settings: 1 μM; mean ± SD, n = 3 (warfarin n = 2)
# [6] = Binding in human plasma; settings: 1 μM; mean ± SD, n = 3 (warfarin n = 2)
# [7] = Toleration studies in mice
# [8] = Hepatic microsomal stability, rat; settings: for half-life at 1 μM: Sprague-Dawley, rat, pH 7.4
# [9] = Hepatic microsomal stability, mouse; settings: for half-life at 1 μM: pH 7.4
# [10] = Hepatic microsomal stability, human; settings: for half-life at 1 μM: human, pH 7.4
# [11] = Tolerability / toxicity on repeated dosing in mice
# [12] = Single-dose pharmacokinetics in FVB mice (oral gavage, IV); settings: for Kp / bioavailability: female, FVB, mouse, po, 10 mg/kg; for Kp: brain and plasma; for bioavailability: plasma
# [13] = Multidose (three-day) pharmacokinetics in liquid diet in FVB mice; settings: FVB, mouse, in vivo
# [14] = tested on: ScN2a-c13 cells; assay: cells; format: cell-based; settings: Mus musculus; N=3; read-out: EC50 by calcein for cell viability
# [15] = tested on: PrP^Sc in dividing ScN2a-c13 cells; settings: read-out: EC50 (ELISA), reduction of PrP^Sc load; dividing ScN2a-c13 cells
# [16] = physchem
# [17] = in vitro; settings: dog, MDCK-MDR1
# [18] = tested on: P-gp (MDR1); assay: in vitro; settings: dog, MDCK-MDR1
# [19] = tested on: PrP^C in T98G cells; format: cell-based, human; settings: for EC50: read-out: EC50 (μM) ELISA potency, PrP^C in T98G cells
# [20] = tested on: PrP^C in N2a-c13 cells; format: cell-based, mouse; settings: read-out: EC50 (μM) ELISA in N2a-cl3 cells (value in parentheses)
# [21] = tested on: PrP^C in IMR32 cells; format: cell-based, human; settings: read-out: EC50, PrP^C; IMR32 cells
# [22] = tested on: PrP^C in T98G cells; format: cell-based, human; settings: read-out: EC50, PrP^C
# [23] = tested on: PrP^C in IMR32 cells; format: cell-based, human
# [24] = tested on: T98G cells; assay: cells; format: cell-based, human; settings: calcein, T98G cells
# [25] = tested on: IMR32 cells; format: cell-based, human
# [26] = tested on: MDCK-MDR^1 cells (P-glycoprotein); assay: Bidirectional MDCK-MDR1 cell permeability; format: in vitro ADME, canine
# Experimental: MDCK-MDR^1 cells were grown to confluence for 5-10 days on 1-μm filters in 24-well plates {Hilgers, 1990}. Aliquots of DMSO stocks were diluted into Hank's balanced salt solution (HBSS), pH 7.4, containing […] to give 10-μM solute concentration. The solute containing donor solutions were transferred to either the apical or basolateral chamber of the permeability diffusion apparatus. Receiver solutions consisted of HBSS (pH 7.4) containing 25 mM HEPES+0.05% PS80. Sequential samples of transported solute were taken at 20-min intervals using an automated liquid handling platform. The concentration of transported solute during each sampling interval was determined by HPLC/UV/MS. Permeability coefficients were calculated for each sampling interval. The average and standard deviation from the intervals are reported. Mass balance in the system was ascertained by comparing the sum of total transported solute and remaining donor solute with the starting mass of solute and is expressed as a percentage of donor solute at time zero. […] In the event of mass balance less than 70%, the cell monolayers were extracted with ACN and analyzed for the solute of interest. Determinations were conducted in duplicate.
# [27] = tested on: PrP^Sc in nondividing ScN2a-cl3 cells; format: cell-based, mouse; settings: read-out: Non-Dividing ELISA EC50 (μM) Mean (n = 3); ScN2a-c13 non-dividing cells; mean n = 3
# [28] = […]
# [29] = tested on: N2a-cl3 cells; assay: cells; settings: Mus musculus, N2a-cl3, read-out: Dividing Calcein EC50 (μM) Mean (n = 3)
# [30] = tested on: MDCK-MDR1 cells; assay: Permeability in MDCK-MDR1 cells; settings: MDR1-MDCK cell monolayers
# [31] = Table 29, 2-AMT analogs tested for potency, usually n = 3 or more
# [32] = CD-1, mouse, mouse liver microsomes
smiles,measurement,setting,value
"C(=N\Nc1ccc(-c2cnco2)cc1)/c1ccncc1 [Compound B, (E)-5-(4-(2-(pyridin-4-ylmethylene)hydrazinyl)phenyl)oxazole, reference compound]",activity on PrP^Sc in nondividing cells (in words),[1],inactive
same,EC50,[2]; [31],0.246 µM
same,EC50,"[2]; read-out: EC50, PrP^Sc ELISA in dividing ScN2a-c13 cells",0.4 µM
same,"Unbound (%), Cell-culture Media",[3],36.5 ± 3.30%
same,effect in prion-infected mice,[4],extended the incubation times
same,"Unbound (%), Mouse Plasma",[5],9.06 ± 2.31%
same,"Unbound (%), Human Plasma",[6],2.10 ± 1.11%
same,Toleration,"[7]; 25, 50, 100, and 150 mg/kg for 3 days in liquid rodent diet, FVB mice","All doses were tolerated, with no animals showing lethal toxicity"
same,animals dying,[7]; ≧150 mg/kg/day for 8 days,2/4
same,half-life at 1 μM,[8]; […],> 60 min
same,"% remaining after a 60-min incubation, Rat",[8]; […],77%
same,half-life at 1 μM,[9]; [32],30 min
same,Hepatic Extraction Ratio Mouse,[9]; mouse,0.8
same,"% remaining after a 60-min incubation, Mouse",[9]; mouse liver microsomes,29%
same,"% remaining after a 60-min incubation, Human",[10]; human liver microsomes,68%
same,half-life at 1 μM,[10]; human liver microsomes,> 60 min
same,dose with lethal toxicity,[11]; administered chronically in vivo for eight days,> 110 mg/kg/day
same,dose with lethal toxicity,[11]; administered in vivo,≥ 150 mg/kg/day
same,tolerated dose,[11]; at least eight days,up to 100 mg/kg/day
same,brain concentration as multiple of EC50,[11]; doses up to 100 mg/kg/day for at least eight days,> 10 ×EC50
same,Kp,[12],0.5
same,bioavailability,[12],25 to 27%
same,concentration at 3 days,"[13]; 100 mg/kg/day, Brain concentrations, 3 days, FVB mice",~10000 nM
"Cc1cccc(Nc2nc(-c3cc4ccccc4o3)cs2)n1 [IND22, (4-Benzofuran-2-yl-thiazol-2-yl)-(6-methyl-pyridin-2-yl)-amine]",EC50,[14],> 10 µM
same,EC50,[2]; AMT analogs tested for potency,1.46 µM
same,EC50,[2]; [31],1.46 µM
same,EC50,[15],1.46 µM
same,solubility in FaSSIF (in words),fasted-state simulated intestinal fluid,higher solubility
same,solubility at pH 2.0 (in words),pH 2 (HCl) buffer,higher solubility
same,solubility,[16]; FaSSIF,59 µM
same,solubility,"[16]; cell culture media, plasma or biological fluid",20 µM
same,solubility,"[16]; pH 2 (HCl) buffer, pH 2, simulated gastric fluid",12 µM
same,solubility,"[16]; pH 7.4 (phosphate) buffer, pH 7.4, aqueous buffer",< 1 µM
same,Papp A→B,[17],9.5 ×10⁻⁶ cm/s
same,Papp B→A,[17],8.4 ×10⁻⁶ cm/s
same,efflux ratio,[18],0.9
same,Toleration,"[7]; 210 mg/kg/day for 14 days, mice",well tolerated
same,Earliest deaths in treated mice,[7]; long-term dosing in mice,59 days
same,half-life at 1 μM,[8]; […],> 60 min
same,"% remaining after a 60-min incubation, Rat",[8]; […],64%
same,Hepatic Extraction Ratio Rat,[8]; rat microsomes,0.4
same,half-life at 1 μM,"[9]; CD-1, mouse, liver microsomes",49 min
same,half-life at 1 μM,[9]; [32],49 min
same,Hepatic Extraction Ratio Mouse,[9]; mouse,0.7
same,"% remaining after a 60-min incubation, Mouse",[9]; mouse liver microsomes,40%
same,Hepatic Extraction Ratio Mouse,[9]; mouse microsomes,0.7
same,"% remaining after a 60-min incubation, Human",[10]; human liver microsomes,99%
same,half-life at 1 μM,[10]; human liver microsomes,> 60 min
same,half-life at 1 μM,[10]; liver microsomes,> 60 min
same,Kp,[12],0.5
same,bioavailability,[12],46%
same,Brain exposure (AUClast) ranking,"[12]; single oral dose, FVB mice, brain",highest AUC values in brain
same,concentration at 3 days,"[13]; 40 mg/kg, Brain Concentration (Css), three-day dosing in liquid diet, brain",1310 ± 390 nM
same,concentration at 3 days,"[13]; 40 mg/kg, Plasma Concentration (Css), three-day dosing in liquid diet, plasma",1490 ± 150 nM
same,concentration at 3 days,"[13]; 80 mg/kg, Brain Concentration (Css), three-day dosing in liquid diet, brain",2700 ± 520 nM
same,concentration at 3 days,"[13]; 80 mg/kg, Plasma Concentration (Css), three-day dosing in liquid diet, plasma",2140 ± 580 nM
same,concentration at 3 days,"[13]; 130 mg/kg, Brain Concentration (Css), three-day dosing in liquid diet, brain",3740 ± 410 nM
same,concentration at 3 days,"[13]; 130 mg/kg, Plasma Concentration (Css), three-day dosing in liquid diet, plasma",2500 ± 670 nM
same,concentration at 3 days,"[13]; 210 mg/kg, Brain Concentration (Css), three-day dosing in liquid diet, brain",3230 ± 2620 nM
same,concentration at 3 days,"[13]; 210 mg/kg, Plasma Concentration (Css), three-day dosing in liquid diet, plasma",1980 ± 1240 nM
COc1cc(OC)cc(C(=O)Nc2ccc(I)cn2)c1 [IND85671],EC50,[19],1.1 µM
same,EC50,[20],0.863 µM
NC(=O)c1ccccc1NC(=O)c1cccnc1N1CCCCC1 [IND87406],EC50,[19],1.12 µM
same,EC50,[20],3.11 µM
same,Hepatic Extraction Ratio Mouse,"[9]; mouse liver microsomes, predicted hepatic extraction",0.91
same,half-life at 1 μM,"[9]; mouse, mouse liver microsomes",6.35 min
same,Hepatic Extraction Ratio Human,"[10]; human liver microsomes, predicted hepatic extraction",0.65
same,half-life at 1 μM,[10]; human liver microsomes,37.1 min
CCOC(=O)c1[nH]c2c(c1C)C(=O)CC(c1ccco1)C2 (centres unmarked) [IND87564],EC50,[19],0.25 µM
same,EC50,[20],1.12 µM
O=C(Cc1ccc(Br)cc1)NCc1ccccc1 [IND-0061769],EC50,[21],2.05 µM
same,EC50,[22],1.84 µM
same,% Inhibition: SPC (T98G),[19],MW: 304.2 % Inhibition: SPC (IMR32): 46 Calcein: 21 SPC (T98G): 63 Calcein: 38
same,% Inhibition: SPC (IMR32),[23],MW: 304.2 % Inhibition: SPC (IMR32): 46 Calcein: 21 SPC (T98G): 63 Calcein: 38
same,% Inhibition: Calcein (T98G),[24],38%
same,% Inhibition: Calcein (IMR32),[25],21%
"COc1ccc(-c2csc(Nc3ccc4ccccc4n3)n2)cc1OC [compound 18, [4-(3,4-dimethoxyphenyl)-thiazol-2-yl]-quinolin-2-yl-amine]","P-gp substrate status, absorptive vs secretory permeability",[26],greater permeability in the absorptive direction
same,Dividing ELISA pEC50 (μM) 1st Expt.,"[2]; ScN2a-cl3 dividing cells, 1st determination",6.31
same,Dividing ELISA pEC50 (μM) 2nd Expt.,"[2]; ScN2a-cl3 dividing cells, 2nd determination",6.47
same,Dividing ELISA pEC50 (μM) 3rd Expt.,"[2]; ScN2a-cl3 dividing cells, 3rd determination",6.34
same,Dividing ELISA pEC50 (μM) Mean,"[2]; ScN2a-cl3 dividing cells, mean of three determinations",6.38
same,EC50,"[2]; read-out: Antiprion activity ScN2a-cl3 EC50, ScN2a-cl3 cells",0.43 µM
same,EC50,"[2]; read-out: Dividing ELISA EC50 (μM) 1st Expt., ScN2a-cl3 dividing cells, 1st determination",0.486 µM
same,EC50,"[2]; read-out: Dividing ELISA EC50 (μM) 2nd Expt., ScN2a-cl3 dividing cells, 2nd determination",0.34 µM
same,EC50,"[2]; read-out: Dividing ELISA EC50 (μM) 3rd Expt., ScN2a-cl3 dividing cells, 3rd determination",0.453 µM
same,EC50,"[2]; read-out: Dividing ELISA EC50 (μM) Mean, ScN2a-cl3 dividing cells, mean of three determinations",0.426 µM
same,EC50,[27],> 32 µM
same,metabolic stability (in words),[28],excellent stability
same,EC50,[29],> 32 µM
same,Permeability PA→B,[30]; apical to basal,9.2 10^−6 cm/sec
same,Permeability PB→A,[30]; basal to apical,8.9 10^−6 cm/sec
same,Microsome stability T1/2,[8]; […],69 min

# — US20140329863A1 (priority 2011, published 2014)
